Laboratory results as given in paper PMC9078534 (RSC Advances, 2018).
Where a name gives a salt, the structure may show the parent alone. Read-outs that look alike come from different tables or passages of the source. Values belong to the molecule of their own block, whether it stands above or below them.

How the values were obtained:
SULT2A1 = test: Kinetics of p-tyrosol sulfate formation from p-tyrosol in rat liver S9 fraction (RLS), sulfation by SULT2A1; format: in vitro ADME
Method: The formation rate of p-tyrosol sulfate could therefore serve as an indicator for the hepatic metabolic rate of SAL. […] The incubation was carried out at 37 °C and terminated by the addition of an equal volume of ice-cold methanol containing 5 μM IS.[18] The content of p-tyrosol sulfate was determined by the UPLC-MS/MS described above. […] All the experiments were carried out in triplicate.
GraphPad Prism® was employed to analyze enzyme kinetic data.

[1] = cited from earlier work
CBG = tested on: CBG; parameters: method as in doi:10.1021/symposium; conditions: other phenolic glycosides; cited from earlier work
[2] = Renal clearance (CLr) of SAL and PAH in hypoxic and normoxic rats; format: in vivo; conditions: rat, plasma and urine, iv
Method: The animal surgery was conducted as described in literature.[23,24] Briefly, the cannulae were inserted into rat right jugular veins, left femoral veins, and bladders after an i.m. injection of 90 mg kg^−1 ketamine and 9 mg kg^−1 xylazine. All surgical procedures were performed under anaesthesia and in a clean surgical room with sterilized instruments. […] Urine from the bladder was collected through the catheter into pre-weighed micro-centrifuge tubes and the volume of urine collected during each 30 min period was calculated by weight. To equilibrate and establish a steady rate of urine excretion, rats were continuously infused with warm saline solution containing mannitol (5%, w/v) for 1 h at a rate of 16 μl min^−1 through the femoral veins (n = 5 each group) using a Sage Instruments Syringe Pump (Cambridge, MA, USA). During the experiment, the rat was placed on a heating pad to maintain body temperature. […] After each blood sampling, an aliquot of 200 μl saline was infused into the jugular to replace the volume of blood taken.

Caco-2 monolayers = test: Transport of SAL across normoxic and hypoxic Caco-2 monolayers (Papp); format: in vitro ADME, human
Method: (§1) The human colorectal adenocarcinoma cell line, Caco-2 cell, was obtained from Cell Resource Center, Institute of Basic Medical Sciences (CAMS). Caco-2 cells, a recognized cell model used for permeability study, were cultured in minimum essential medium (MEM) containing 10% fetal bovine serum, 1% nonessential amino acids, 100 U ml^−1 penicillin, and 100 μg ml^−1 streptomycin, and then were kept in a humidified incubator at 37 °C with 5% CO2. To obtain differentiated monolayers, Caco-2 cells were seeded in Transwell® chambers (12 mm, 0.4 μm pore size; Corning, MA, USA) at a density of 1 × 10^5 cells per wells and cultured for 21 days. TEER (trans-epithelial electrical resistance) was used to monitor the integrity of the monolayer. Monolayer with TEER above 600 Ω cm^2 was employed in the present study. Caco-2 cells grown in Transwell® at passage 32–45 were used for the experiment. After cultivation for 21 days, normoxic incubations were performed in a tissue culture incubator at 37 °C, 5% CO2, while hypoxic incubations were performed in an oxygen-control hypoxic glove box at 37 °C, 1% oxygen content for 24 h.[15] The enzyme activities of LDH, CS and the protein expression of HIF-1α were monitored for hypoxic model validation. The morphological study on hypoxic Caco-2 monolayer was performed with the aid of transmission electron microscopy (TEM) (JEM-2100F, Japan). The expression level of tight junction proteins (ZO-1) in Caco-2 cell under normoxic and hypoxic conditions was measured by western blotting.
(§2) According to the method published in Nature Protocols, the transport test was performed in Hank's balanced salt solution (HBSS) containing 5.56 mM glucose, 10 mM HEPES and 1.26 mM CaCl2.[16] Before experiment, the monolayers were washed twice with HBSS medium and pre-incubated for 30 min. […] Equal volume of the blank HBSS buffer was added back to the chambers after sampling to maintain a constant systemic volume. The collected samples were stored at −20 °C until UPLC-MS/MS analyses.
(§3) The Caco-2 monolayer was pre-incubated with phlorizin (100 μM) for 30 min before the transport experiment.

[3] = as above; format: in vitro ADME, human; conditions: human, SAL 10 μM
Method: as §1, §2, §3

[4] = Protein binding of SAL in rat plasma by ultrafiltration; format: in vitro ADME; conditions: three spiking concentrations (100, 500, 1000 μg ml^−1), 37 °C, 30 min
Method: After incubation at 37 °C for 30 min, an aliquot of 500 μl plasma was added into the upper part of the centrifugal filter device (Amicon®, cutoff value: 10 kDa). The centrifuge was then conducted in a rate of 11 300g for 30 min at room temperature. SAL in the original sample and ultrafiltrate were determined by UPLC-MS/MS method.

[5] = male, SD, rat, in vivo
Excerpt: (§4) Briefly, rats were exposed to hypoxic condition (oxygen content of 9%) for 3 consecutive days to construct the model. Normoxic controls were kept in room air (21% O2) for 3 consecutive days. The concentrations of LDH, CS, and HIF-1α in rat plasma were monitored with the aid of commercial kit listed in ‘Material’ section for model validation.
(§5) Twenty male SD rats were randomly divided into hypoxic group (HYP) and normoxic group (NOR) with ten rats in each group. Following hypoxic and normoxic model construction, rats were prepared for surgery. […] Briefly, rats were anesthetized with an intramuscular dose of ketamine (90 mg kg^−1) and xylazine (9 mg kg^−1) followed by cannulation with a polythene tube (0.5 mm i.d., 1 mm, Portex Ltd., Hythe, Kent, England) in the right jugular vein. The rats were allowed to recover overnight and had free access to water and food. […] The blood samples (200 μl) were taken from the jugular vein catheter and were collected into the heparinized tubes at the following time points: 0, 5, 10, 30, 60, 120, 240, 360, 480, 720 and 1440 min after oral administration and 0, 2, 5, 10, 30, 60, 120, 240, 360, 480 min after intravenous administration, respectively. An aliquot of 200 μl sterile isotonic saline was given immediately to rats after blood sample collection for compensation of body fluid loss. The animals were sacrificed with pentobarbital sodium salt (200 mg kg^−1, i.p.) at the end of the experiment. The obtained blood samples were centrifuged at 11 300g for 5 min at 4 °C and the plasma samples (supernatant) was collected for UPLC-MS/MS analyses. Protein precipitation was adopted for samples preparation.
(§6) Pharmacokinetic parameters including the area under the curve (AUC) and elimination half-life (t1/2) were calculated by non-compartmental model. The peak plasma concentration (Cmax) and the time for reaching Cmax (Tmax) were obtained directly from the experimental data.

[6] = Stability of SAL in samples during UPLC-MS/MS method validation; format: physicochemical
Method: To prepare the samples for calibration curves, 10 μl of IS working solution (containing 100 μg ml^−1 paracetamol) and 10 μl of analyte work solution was added to 100 μl of blank rat plasma. Approximately 300 μl methanol was then added to the above plasma sample for protein precipitation. After centrifuging the mixture at 11 300g for 10 min, the supernatant was collected followed by being evaporated to dryness under nitrogen at room temperature. The residue was reconstituted with 100 μl of methanol. After being centrifuged at 11 300g for 10 min, an aliquot of 5 μl supernatant was injected into the UPLC-MS/MS system for analyses. […] For all QC samples in rat biological matrices, the % RSD of both intra-day and inter-day precision was below 10.4%, and the accuracy was within the range of 85.4 to 100%, which met the criteria from FDA.

in vivo = conditions: male, SD, rat
Excerpt: as §4, §5, §6

[7] = substrate: OC[C@H]1O[C@@H](OCCc2ccc(O)cc2)[C@H](O)[C@@H](O)[C@@H]1O; test: cells, lysate or membranes named; conditions: pH 7.4, 37.0 °C
[8] = Caco-2, hypoxic Caco-2 monolayer model (1% O2, 24 h)
[9] = Caco-2, normoxic Caco-2 monolayer model
[10] = background statement, no reference given

Clint of SULT2A1 (SULT2A1; hypoxic RLS): 10.4 ± 2.7 µL/min/mg | Clint of SULT2A1 (SULT2A1; normoxic RLS): 5.8 ± 1.2 µL/min/mg
Molecule: OCCc1ccc(O)cc1 [p-tyrosol]
Vmax of SULT2A1 (p-tyrosol sulfate formation from p-tyrosol) (SULT2A1; hypoxic RLS): 78.3 ± 11.2 nmol/min/mg | Vmax of SULT2A1 (p-tyrosol sulfate formation from p-tyrosol) (SULT2A1; normoxic RLS): 23.3 ± 4.4 nmol/min/mg

Molecule: O=S(=O)(O)Oc1ccc(CCO)cc1 [p-Tyrosol sulfate, p-tyrosol sulfate]
share of total metabolites of SAL ([1]; rats, systemic circulation): over 50%

Molecule: daidzein 4-glycoside
Km (CBG): 50 µM

CL renal ([2]; 30 mg/kg, hypoxic rats, PAH 30 mg kg^−1 i.v. bolus): 0.818 mL/min/kg | CL renal ([2]; 30 mg/kg, normoxic rats, PAH 30 mg kg^−1 i.v. bolus): 3.28 mL/min/kg
Molecule: Nc1ccc(C(=O)NCC(=O)O)cc1 [PAH, p-aminohippuric acid, reference compound]

Molecule: quercetin 4-glycoside
Km (CBG): 65 µM

ratio between Papp(A→B) and Papp(B→A) (Caco-2 monolayers; hypoxic Caco-2 monolayer model): 2.53 | ratio between Papp(A→B) and Papp(B→A) (Caco-2 monolayers; normoxic Caco-2 monolayer model): 10.0 | ratio between Papp(A→B) and Papp(B→A) (Caco-2 monolayers; normoxic Caco-2 monolayer model, after addition of SGLT1 inhibitor (phlorizin 100 μM)): 2.24 | Papp A→B at 180 min, 10 μM [3, 8]: 1.77 ± 0.18 ×10⁻⁶ cm/s | Papp B→A at 180 min, 10 μM [3, 8]: 0.7 ± 0.2 ×10⁻⁶ cm/s | Papp A→B at 180 min, 10 μM [3, 9]: 0.88 ± 0.11 ×10⁻⁶ cm/s | Papp B→A at 180 min, 10 μM [3, 9]: 0.088 ± 0.02 ×10⁻⁶ cm/s | plasma binding ratio, hypoxic versus normoxic rats [4]: similar | MRT(0→t) ([5]; iv, 444 ug/kg): 70.9 ± 7.9 min | t1/2 ([5]; iv, 444 ug/kg): 97.5 ± 12.5 min | Cmax ([5]; po, 4.44 mg/kg): 1835.4 ± 690.5 ng/mL | Tmax ([5]; po, 4.44 mg/kg): 48.0 ± 16.4 min | CL renal ([2]; 444 ug/kg, hypoxic rats, SAL 444 μg kg^−1 i.v. bolus): 0.497 mL/min/kg | CL renal ([2]; 444 ug/kg, normoxic rats, SAL 444 μg kg^−1 i.v. bolus): 1.77 mL/min/kg | stability ([6]; auto-sampler (4 °C) for 24 h): stable | stability ([6]; −80 °C for 30 days): stable | MRT last (in vivo; iv, 444 ug/kg, MRT(0→t)): 48.3 min | half-life (in vivo; iv, 444 ug/kg, t1/2): 67.2 ± 11.8 min | Cmax (in vivo; po, 4.44 mg/kg, Cmax): 2070 ± 264 ng/mL | Tmax (in vivo; po, 4.44 mg/kg, Tmax): 36 min
Molecule: OC[C@H]1O[C@@H](OCCc2ccc(O)cc2)[C@H](O)[C@@H](O)[C@@H]1O [SAL, salidroside]
share of parent compound that undergoes deglycosylation and sulfation ([1]; after oral administration to rats, literature and preliminary studies): more than 50% | share of administered SAL excreted from urine as parent compound [1, 10]: about 20% | share of eliminated SAL accounted for by renal clearance [1, 10]: no more than 20%

B1: cytosolic β-glucosidase (CBG) (Rattus norvegicus) (protein)
chain: MAFPVGFGWGAATAAYQVEGGWDADGRGPCVWDTFTHQGGERVFENQTGDVACGSYTLWEEDLKCIKQLGLTHYRFSLSWSRLLPDGTTGFINQKGIDYYNKIIDDLLKNGVTPIVAIYHFDLPQALEDLGGWLSEAIVEAFDKYAQFCFSTFGDRVKQWLTINEPNILALLAYDMGIFAPGVPHIGIGGYQAAHNLIKAHARSWHSYDSLFREEQKGFVSLSLFFCWLEPADPNSEIDQEATKRAINFHLDFFAKPIFIDGDYPDVVKSQVASMSKKQGYPSSRLPEFTEEEKKMIKGTADFFAVQYYTTRLVRHQENKKRELGFLQDVEIEFFPNPFWKNVGWIYVVPWGIRKLLKYIKDTYNNPVIYITENGFPQCDPPSLDDTQRWEYFRQTFQELFKAIHVDDVNLQLYCAWSLLDNFEWNNGYSRRFGLFHVDFEDPARPRTPYRSAKEYAKVIRDNGLAGAM
Km ([7]; other: hypoxic RLS): 19.5 ± 3.1 µM | Km ([7]; other: normoxic RLS): 5.2 ± 0.6 µM
